This is an account of results in PubChem BioAssay AID651652 (NMMLSC, 2012).

Assay [1] can be described thus: concentration-response toxicity in K562 empty-vector line, CellTiter-Glo luminescence, ABCB6 inhibitor project counterscreen, PowderSet01 powders (AID 651652). Conditions: K562 vector control viability, CellTiter-Glo, 18 h; at 100 µM (top of the series).
For assay [2], the system named is K562 vector control viability, CellTiter-Glo, 18 h. Described as above.

Calls of active or inactive are those of the source.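 How the source made its calls: active means viability at the highest tested concentration below 50%; inactive means the rest.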

On to `CC(=O)Nc1ccc(NC(=O)c2nc(S(=O)(=O)Cc3ccccc3)ncc2Cl)cc1`, for which the viability in assay [1] is 58% (inactive).
Take `CCOc1ccccc1NC(=O)c1nc(S(=O)(=O)Cc2cccc(C)c2)ncc1Cl`: in assay [2], the EC50 was 11.9 µM.
Consider `CC(=O)Nc1ccc(NC(=O)c2nc(S(=O)(=O)Cc3cccc(C)c3)ncc2Cl)cc1`, for which, in assay [1], the viability was 51.9% (inactive).
On to `CCc1ccc(NC(=O)c2nc(S(=O)(=O)Cc3ccccc3)ncc2Cl)cc1`, for which the EC50 in assay [2] was 4.51 µM.
